These results are taken from patent publication US20220313686A1, “PHARMACEUTICAL COMPOSITIONS COMPRISING A COMBINATION OF OPIOID ANTAGONISTS” (YISSUM RESEARCH DEVELOPMENT COMPANY OF THE HEBREW …, priority 2019, published 2022).

Data set [1] concerns opioid receptors. Particulars: metabolite of naltrexone; cited from earlier work.
The nature of data set [2]: Passive loading of naloxone and naltrexone into MLV's liposomes. It counts as physicochemical.
For data set [3], the system named is opioid receptors. Particulars: in vivo; cited from earlier work.
For the next data set, the target named is μ-receptor (Homo sapiens, UniProt P35372). Particulars: in vitro; cited from earlier work.
Chain of μ-receptor (P35372 whole entry, species assumed): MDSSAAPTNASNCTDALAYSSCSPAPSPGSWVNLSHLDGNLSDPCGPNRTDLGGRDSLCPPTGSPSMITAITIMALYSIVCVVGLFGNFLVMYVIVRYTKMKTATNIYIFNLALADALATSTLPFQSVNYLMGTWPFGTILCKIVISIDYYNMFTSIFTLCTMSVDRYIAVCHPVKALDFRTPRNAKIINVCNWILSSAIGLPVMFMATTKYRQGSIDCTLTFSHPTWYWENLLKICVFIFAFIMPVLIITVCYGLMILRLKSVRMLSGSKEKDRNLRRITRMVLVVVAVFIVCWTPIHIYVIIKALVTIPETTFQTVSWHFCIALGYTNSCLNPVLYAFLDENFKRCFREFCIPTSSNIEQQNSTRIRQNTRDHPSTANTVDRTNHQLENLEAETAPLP
Data set [4] addresses T1, κ-receptor (Homo sapiens, UniProt P41145). The conditions noted are these: in vitro; cited from earlier work.
In data set [5] the target is T2, δ-receptor (Homo sapiens, UniProt P41143). The conditions noted are these: in vitro; cited from earlier work.
T2 sequence (P41143 whole entry): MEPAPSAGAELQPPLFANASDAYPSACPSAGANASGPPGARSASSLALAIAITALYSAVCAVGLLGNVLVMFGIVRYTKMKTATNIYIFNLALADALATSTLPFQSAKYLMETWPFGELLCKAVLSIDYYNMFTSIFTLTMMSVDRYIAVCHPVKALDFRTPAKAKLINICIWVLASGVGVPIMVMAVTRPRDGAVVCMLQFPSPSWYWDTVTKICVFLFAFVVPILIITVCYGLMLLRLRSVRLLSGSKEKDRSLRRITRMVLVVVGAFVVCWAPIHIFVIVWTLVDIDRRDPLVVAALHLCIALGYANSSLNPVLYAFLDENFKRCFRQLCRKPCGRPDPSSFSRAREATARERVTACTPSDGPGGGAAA
Data set [6] deals with T1, κ-receptor. Particulars: in vitro; cited from earlier work. This is another data set of the same source.
The target of another data set is μ-opioid receptor (Homo sapiens, UniProt P35372). Particulars: cited from earlier work.
Chain of μ-opioid receptor (P35372 whole entry, species assumed): as the sequence (P35372 whole entry, species assumed) above
In data set [7] the target is T2, δ-receptor. Particulars: in vitro; cited from earlier work. This is another data set of the same source.

T1 sequence (P41145 whole entry): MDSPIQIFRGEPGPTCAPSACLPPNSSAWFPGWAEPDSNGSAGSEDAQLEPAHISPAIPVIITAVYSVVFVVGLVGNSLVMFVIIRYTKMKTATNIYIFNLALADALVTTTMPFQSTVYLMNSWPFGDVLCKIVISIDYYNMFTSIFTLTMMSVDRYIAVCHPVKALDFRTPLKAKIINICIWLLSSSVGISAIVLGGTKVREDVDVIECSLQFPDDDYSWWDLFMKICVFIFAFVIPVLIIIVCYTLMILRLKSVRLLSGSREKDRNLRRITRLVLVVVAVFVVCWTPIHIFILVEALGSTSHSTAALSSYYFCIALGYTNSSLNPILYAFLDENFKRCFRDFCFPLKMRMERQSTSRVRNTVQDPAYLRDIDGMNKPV

As for `Oc1ccc2c3c1O[C@H]1[C@H](O)CC[C@@]4(O)[C@@H](C2)N(CC2CC2)CC[C@]314` [60-naltrexol], the antagonist activity entry in the data set with opioid receptors [1] is recorded as “active antagonist”.
Compound `C=CCN1CC[C@]23c4c5ccc(O)c4O[C@H]2C(=O)CC[C@@]3(O)[C@H]1C5` [Naloxone, 17-allyl-4,5α-epoxy-3,14-dihydroxymorphinan-6-one] had a Liposomal naloxone conc. in [2] of 6.8 mg/mL.
Turning to `O=C1CC[C@@]2(O)[C@H]3Cc4ccc(O)c5c4[C@@]2(CCN3CC2CC2)[C@H]1O5` [Naltrexone, 17-(cyclopropylmethyl)-4,5α-epoxy-3,14-dihydroxymorphinan-6-one], in the data set with opioid receptors [3], the duration of effect entry is reported as “last about a day”. Further, the Liposomal naltrexone conc. in data set [2] worked out at 8.1 mg/mL.
As for `NC(=O)c1ccc2c(c1O)[C@]13CCN(CC4CC4)[C@H](C2)[C@]1(O)CCC(=O)C3` [Samidorphan, 3-carboxamido-4-hydroxynaltrexone], the “action at μ-receptor” value on μ-receptor is “antagonist”. The “action at κ-receptor” value at κ-receptor [4] is “partial agonist”. Besides, at δ-receptor [5], the “affinity at δ-receptor” value is “high affinity”. For the same compound, the “affinity at κ-receptor” value on κ-receptor [6] is on record as “high affinity”. Moreover, at μ-opioid receptor, the “greater affinity at mu-opioid receptor compared to naltrexone” value is “five”. In addition, the “affinity at μ-receptor” value on μ-opioid receptor (in vitro) is “high affinity”. Moreover, the “action at δ-receptor” value at δ-receptor [7] is recorded as “partial agonist”.
